Data as given in the NIST ThermoML archive (doi:10.1021/je301132p).

Experiment: mn = molality of the nth substance listed, in mol/kg
Details: Liquid, Vibrating tube method

O=C([O-])O.[Na+] [sodium bicarbonate] + O
mass density [kg/m3]
Details | 1100 kPa | 10100 kPa | 20100 kPa | 30100 kPa | 40100 kPa | 50100 kPa | 60100 kPa | 68600 kPa
298.11 K, m1 = 0.507 | 1026.64 | 1030.34 | 1034.56 | 1038.58 | 1042.55 | 1046.47 | 1050.19 | 1053.46
298.11 K, m1 = 1 | 1053.32 | 1056.9 | 1060.94 | 1064.78 | 1068.62 | 1072.42 | 1075.95 | 1079.05
323.13 K, m1 = 0.507 | 1016.27 | 1019.92 | 1023.96 | 1027.87 | 1031.74 | 1035.56 | 1039.28 | 1042.41
323.13 K, m1 = 1 | 1042.1 | 1045.63 | 1049.49 | 1053.27 | 1057.11 | 1060.81 | 1064.4 | 1067.35
348.12 K, m1 = 0.507 | 1002.67 | 1006.34 | 1010.5 | 1014.5 | 1018.42 | 1022.29 | 1026.03 | 1029.22
348.12 K, m1 = 1 | 1028.17 | 1031.76 | 1035.74 | 1039.62 | 1043.26 | 1047.06 | 1050.67 | 1053.84
373.12 K, m1 = 0.507 | 986.45 | 990.43 | 994.75 | 998.96 | 1003.05 | 1007.05 | 1010.74 | 1014.16
373.12 K, m1 = 1 | 1011.61 | 1015.42 | 1019.51 | 1023.49 | 1027.56 | 1031.43 | 1035.29 | –
